From ChEMBL document CHEMBL4706768, “Discovery of Potent, Selective Triazolothiadiazole-Containing c-Met Inhibitors” (ACS Med Chem Lett, 2021)

Columns and labels:
[1] = molecular target: Tyrosine-protein kinase JAK2 (Homo sapiens, UniProt O60674); assay: Inhibition of JAK2 (unknown origin)
[2] = molecular target: Vascular endothelial growth factor receptor 2 (Homo sapiens, UniProt P35968); assay: Inhibition of KDR (unknown origin)
[3] = Inhibition of PI3K (unknown origin); design: species or system Homo sapiens
[4] = molecular target: ALK tyrosine kinase receptor (Homo sapiens) (UniProt Q9UM73); assay: Inhibition of recombinant N-terminal His6-tagged human ALK (1058 to end residues) expressed in baculovirus infected Sf21 insect cells at 2 uM using IGF-1Rtide as substrate relative to control
[5] = molecular target: Mitogen-activated protein kinase kinase kinase 5 (Homo sapiens) (UniProt Q99683); assay: Inhibition of recombinant N-terminal GST-tagged/C-terminal His6-tagged human ASK1 (649 to 946 residues) expressed in Escherichia coli at 2 uM using MBP as substrate relative to control
[6] = molecular target: Tyrosine-protein kinase receptor UFO (Homo sapiens) (UniProt P30530); assay: Inhibition of recombinant N-terminal His6-tagged human AXL (473 to end residues) expressed in Sf21 insect cells at 2 uM using Axl-tide as substrate relative to control
[7] = molecular target: Tyrosine-protein kinase BTK (Homo sapiens) (UniProt Q06187); assay: Inhibition of recombinant N-terminal His6-tagged human full-length BTK expressed in Sf21 insect cells at 2 uM using Src peptide as substrate relative to control
[8] = molecular target: Serine/threonine-protein kinase Chk1 (Homo sapiens) (UniProt O14757); assay: Inhibition of recombinant human N-terminal GST-tagged full-length CHK1 expressed in Sf21 insect cells at 2 uM using CHKtide as substrate relative to control
Sequence of Serine/threonine-protein kinase Chk1 (Homo sapiens) (O14757 whole entry): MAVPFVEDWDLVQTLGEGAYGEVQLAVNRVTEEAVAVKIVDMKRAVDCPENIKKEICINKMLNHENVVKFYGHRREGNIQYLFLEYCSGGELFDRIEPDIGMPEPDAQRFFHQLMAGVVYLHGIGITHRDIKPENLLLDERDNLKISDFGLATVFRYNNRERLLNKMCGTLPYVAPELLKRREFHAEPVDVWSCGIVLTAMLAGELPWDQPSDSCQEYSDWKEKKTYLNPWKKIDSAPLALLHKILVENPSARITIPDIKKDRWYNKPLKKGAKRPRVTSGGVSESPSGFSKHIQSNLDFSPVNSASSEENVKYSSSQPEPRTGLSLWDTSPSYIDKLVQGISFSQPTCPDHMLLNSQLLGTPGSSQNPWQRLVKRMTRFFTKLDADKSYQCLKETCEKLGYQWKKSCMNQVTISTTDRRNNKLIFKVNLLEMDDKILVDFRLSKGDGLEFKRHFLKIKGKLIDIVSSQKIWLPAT

[9] = molecular target: Mitogen-activated protein kinase; ERK1/ERK2 (Homo sapiens) (UniProt P27361+P28482); assay: Inhibition of recombinant human full-length N-terminal GST-tagged MAPK1/ERK1 ([…]) expressed in Escherichia coli at 2 uM using MBP as substrate relative to control
[10] = molecular target: Tyrosine-protein kinase Fes/Fps (Homo sapiens) (UniProt P07332); assay: Inhibition of recombinant human N-terminal His6-tagged FES (561 to end residues) expressed in baculovirus infected Sf21 insect cells at 2 uM using poly (Glu,Tyr) (4:1) as substrate relative to control
[11] = molecular target: Fibroblast growth factor receptor 3 (Homo sapiens) (UniProt P22607); assay: Inhibition of recombinant human N-terminal His6-tagged FGFR3 (447 to 761 residues) expressed in Sf21 insect cells at 2 uM using poly (Glu,Tyr) (4:1) as substrate relative to control
[12] = molecular target: Insulin-like growth factor 1 receptor (Homo sapiens) (UniProt P08069); assay: Inhibition of recombinant human N-terminal His6-tagged IGF1R (959 to end residues) expressed in baculovirus infected Sf21 insect cells at 2 uM relative to control
[13] = molecular target: Tyrosine-protein kinase Lck (Homo sapiens) (UniProt P06239); assay: Inhibition of recombinant human full-length N-terminal His6-tagged LCK expressed in baculovirus infected Sf21 insect cells at 2 uM relative to control
[14] = molecular target: Ribosomal protein S6 kinase alpha-5 (Homo sapiens) (UniProt O75582); assay: Inhibition of recombinant human N-terminal His6-tagged MSK1 (2 to end residues) expressed in baculovirus infected Sf21 insect cells at 2 uM using Crosstide as substrate relative to control
[15] = molecular target: Serine/threonine-protein kinase 3 (Homo sapiens) (UniProt Q13188); assay: Inhibition of recombinant human N-terminal His6-tagged MST2 (2 to end residues) expressed in baculovirus infected Sf21 insect cells at 2 uM using MBP as substrate relative to control
[16] = molecular target: Serine/threonine-protein kinase Nek2 (Homo sapiens) (UniProt P51955); assay: Inhibition of recombinant human N-terminal His6-tagged NEK2 expressed in baculovirus infected Sf21 insect cells at 2 uM using MBP as substrate relative to control
[17] = molecular target: Mitogen-activated protein kinase 11 (Homo sapiens) (UniProt Q15759); assay: Inhibition of recombinant human N-terminal GST-tagged full-length p38beta2 expressed in Escherichia coli at 2 uM using MBP as substrate relative to control
[18] = molecular target: Serine/threonine-protein kinase PAK 2 (Homo sapiens) (UniProt Q13177); assay: Inhibition of recombinant human N-terminal/C-terminal His6-tagged full-length PAK2 (3 to end residues) expressed in Escherichia coli at 2 uM using long S6 Kinase peptide as substrate relative to control
Sequence of Serine/threonine-protein kinase PAK 2 (Homo sapiens) (Q13177 whole entry): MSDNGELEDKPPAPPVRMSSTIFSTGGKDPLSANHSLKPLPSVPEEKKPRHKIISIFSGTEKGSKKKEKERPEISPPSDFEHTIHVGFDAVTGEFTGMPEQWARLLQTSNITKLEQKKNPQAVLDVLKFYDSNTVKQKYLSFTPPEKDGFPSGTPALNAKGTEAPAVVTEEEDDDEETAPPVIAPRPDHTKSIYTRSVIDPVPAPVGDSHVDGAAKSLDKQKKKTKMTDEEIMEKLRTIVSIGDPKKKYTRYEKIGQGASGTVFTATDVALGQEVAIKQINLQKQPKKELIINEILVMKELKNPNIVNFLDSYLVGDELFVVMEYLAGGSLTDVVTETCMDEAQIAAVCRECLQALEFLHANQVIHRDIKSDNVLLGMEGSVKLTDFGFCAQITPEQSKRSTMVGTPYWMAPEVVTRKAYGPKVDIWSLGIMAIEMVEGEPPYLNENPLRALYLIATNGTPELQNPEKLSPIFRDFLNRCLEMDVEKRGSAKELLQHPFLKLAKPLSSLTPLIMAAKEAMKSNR

[19] = molecular target: Platelet-derived growth factor receptor alpha (Homo sapiens) (UniProt P16234); assay: Inhibition of recombinant human N-terminal His6-tagged PDGFRalpha (550 to end residues) expressed in baculovirus infected Sf21 insect cells at 2 uM using poly (Glu4-Tyr) (4:1) as substrate relative to control
[20] = molecular target: Protein kinase C theta type (Homo sapiens) (UniProt Q04759); assay: Inhibition of recombinant human full-length C-terminal His6-tagged PKCtheta expressed in Sf21 insect cells at 2 uM using Histone H1 as substrate relative to control
[21] = molecular target: Proto-oncogene tyrosine-protein kinase receptor Ret (Homo sapiens) (UniProt P07949); assay: Inhibition of recombinant human N-terminal GST-tagged RET (658 to end residues) expressed in baculovirus infected Sf21 insect cells at 2 uM using IFG1Rtide as substrate relative to control
[22] = molecular target: Receptor-interacting serine/threonine-protein kinase 2 (Homo sapiens) (UniProt O43353); assay: Inhibition of recombinant human N-terminal His6-tagged RIPK2 (1 to 299 residues) expressed in baculovirus infected Sf21 insect cells at 2 uM using MBP as substrate relative to control
Sequence of Receptor-interacting serine/threonine-protein kinase 2 (Homo sapiens) (O43353 whole entry, the tested form may be a part): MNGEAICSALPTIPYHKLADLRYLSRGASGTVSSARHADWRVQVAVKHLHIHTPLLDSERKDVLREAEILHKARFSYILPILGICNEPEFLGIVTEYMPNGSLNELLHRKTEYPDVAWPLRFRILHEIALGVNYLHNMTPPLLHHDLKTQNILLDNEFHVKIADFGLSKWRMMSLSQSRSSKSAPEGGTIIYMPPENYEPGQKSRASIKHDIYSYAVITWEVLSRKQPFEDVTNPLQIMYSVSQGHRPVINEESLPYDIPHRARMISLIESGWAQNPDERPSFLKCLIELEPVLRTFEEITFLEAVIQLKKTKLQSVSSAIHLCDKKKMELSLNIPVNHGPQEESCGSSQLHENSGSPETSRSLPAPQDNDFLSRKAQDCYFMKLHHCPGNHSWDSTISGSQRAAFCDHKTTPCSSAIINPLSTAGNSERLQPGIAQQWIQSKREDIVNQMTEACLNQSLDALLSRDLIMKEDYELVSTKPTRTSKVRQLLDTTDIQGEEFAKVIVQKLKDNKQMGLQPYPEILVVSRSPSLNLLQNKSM

[23] = molecular target: Proto-oncogene tyrosine-protein kinase ROS (Homo sapiens) (UniProt P08922); assay: Inhibition of recombinant human N-terminal His6-tagged ROS (1883 to end residues) expressed in baculovirus infected Sf21 insect cells at 2 uM using KKKSPGEYVNIEFG as substrate relative to control
Sequence of Proto-oncogene tyrosine-protein kinase ROS (Homo sapiens) (P08922 whole entry): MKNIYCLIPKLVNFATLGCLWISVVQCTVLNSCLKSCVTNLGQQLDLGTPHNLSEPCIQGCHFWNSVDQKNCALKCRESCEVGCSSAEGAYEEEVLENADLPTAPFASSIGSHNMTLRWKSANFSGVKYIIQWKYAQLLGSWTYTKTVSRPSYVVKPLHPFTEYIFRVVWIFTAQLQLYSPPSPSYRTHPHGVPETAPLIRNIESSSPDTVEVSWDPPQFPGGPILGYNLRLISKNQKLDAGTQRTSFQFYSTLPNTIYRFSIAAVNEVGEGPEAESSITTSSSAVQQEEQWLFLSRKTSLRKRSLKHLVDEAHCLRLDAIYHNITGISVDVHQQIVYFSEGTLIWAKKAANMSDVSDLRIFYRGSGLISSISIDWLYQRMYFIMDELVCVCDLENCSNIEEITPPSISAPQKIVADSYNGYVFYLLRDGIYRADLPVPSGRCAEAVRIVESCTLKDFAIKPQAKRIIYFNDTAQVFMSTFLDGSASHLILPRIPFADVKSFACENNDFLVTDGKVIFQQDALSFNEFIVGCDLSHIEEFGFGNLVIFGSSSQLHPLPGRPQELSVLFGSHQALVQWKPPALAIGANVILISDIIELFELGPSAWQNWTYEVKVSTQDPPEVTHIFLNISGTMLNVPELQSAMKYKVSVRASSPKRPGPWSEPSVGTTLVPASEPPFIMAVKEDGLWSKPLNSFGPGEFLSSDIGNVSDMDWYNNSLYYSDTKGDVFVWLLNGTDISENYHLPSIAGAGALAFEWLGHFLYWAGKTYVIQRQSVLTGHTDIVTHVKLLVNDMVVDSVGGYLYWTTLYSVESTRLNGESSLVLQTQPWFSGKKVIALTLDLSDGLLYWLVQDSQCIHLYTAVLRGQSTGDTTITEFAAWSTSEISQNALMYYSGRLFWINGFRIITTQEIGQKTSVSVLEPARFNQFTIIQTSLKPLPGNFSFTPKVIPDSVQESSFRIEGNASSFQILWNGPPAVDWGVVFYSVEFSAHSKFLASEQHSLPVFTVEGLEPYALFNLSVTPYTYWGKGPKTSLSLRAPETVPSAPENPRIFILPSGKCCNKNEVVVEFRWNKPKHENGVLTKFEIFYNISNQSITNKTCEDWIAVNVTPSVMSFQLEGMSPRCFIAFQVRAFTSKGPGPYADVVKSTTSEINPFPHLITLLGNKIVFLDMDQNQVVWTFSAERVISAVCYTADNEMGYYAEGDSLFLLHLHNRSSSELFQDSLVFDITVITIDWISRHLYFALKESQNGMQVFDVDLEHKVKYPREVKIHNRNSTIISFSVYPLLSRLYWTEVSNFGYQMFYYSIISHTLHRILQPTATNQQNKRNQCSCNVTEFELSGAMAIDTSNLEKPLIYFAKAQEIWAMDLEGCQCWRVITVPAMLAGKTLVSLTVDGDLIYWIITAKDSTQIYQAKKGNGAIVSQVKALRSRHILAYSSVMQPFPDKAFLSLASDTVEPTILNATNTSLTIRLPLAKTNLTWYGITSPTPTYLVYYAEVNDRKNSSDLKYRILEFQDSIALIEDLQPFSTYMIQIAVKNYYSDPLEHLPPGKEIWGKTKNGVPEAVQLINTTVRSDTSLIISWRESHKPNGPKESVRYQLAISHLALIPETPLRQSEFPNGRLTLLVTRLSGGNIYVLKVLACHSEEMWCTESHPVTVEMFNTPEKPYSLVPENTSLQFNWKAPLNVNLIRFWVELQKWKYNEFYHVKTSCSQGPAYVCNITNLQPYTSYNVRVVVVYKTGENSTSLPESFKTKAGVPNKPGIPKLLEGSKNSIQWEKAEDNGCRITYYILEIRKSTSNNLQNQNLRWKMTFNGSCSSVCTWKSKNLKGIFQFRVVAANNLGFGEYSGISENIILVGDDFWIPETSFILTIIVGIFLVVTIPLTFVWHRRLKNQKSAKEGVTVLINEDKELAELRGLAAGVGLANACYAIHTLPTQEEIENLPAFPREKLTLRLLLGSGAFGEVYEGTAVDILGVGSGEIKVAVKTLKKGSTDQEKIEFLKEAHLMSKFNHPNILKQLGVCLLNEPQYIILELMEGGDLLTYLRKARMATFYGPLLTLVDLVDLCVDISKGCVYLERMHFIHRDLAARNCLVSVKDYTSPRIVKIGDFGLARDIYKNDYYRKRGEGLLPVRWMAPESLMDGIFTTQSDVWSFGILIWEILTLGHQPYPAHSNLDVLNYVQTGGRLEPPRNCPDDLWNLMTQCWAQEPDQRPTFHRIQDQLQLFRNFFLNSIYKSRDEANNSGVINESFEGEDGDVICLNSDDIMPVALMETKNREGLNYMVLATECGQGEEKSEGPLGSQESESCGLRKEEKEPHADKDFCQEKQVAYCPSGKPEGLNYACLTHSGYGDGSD

[24] = molecular target: Ribosomal protein S6 kinase alpha-2 (Homo sapiens) (UniProt Q15349); assay: Inhibition of recombinant human N-terminal full-length His6-tagged RSK3 ([…]) expressed in Sf21 insect cells at 2 uM using MAPKAP Kinase 2 as substrate relative to control
[25] = molecular target: Angiopoietin-1 receptor (Homo sapiens) (UniProt Q02763); assay: Inhibition of recombinant human N-terminal His6-tagged TIE2 (771 to end residues) expressed in baculovirus infected Sf21 insect cells at 2 uM using poly (Glu4-Tyr) (4:1) as substrate relative to control
Sequence of Angiopoietin-1 receptor (Homo sapiens) (Q02763 whole entry): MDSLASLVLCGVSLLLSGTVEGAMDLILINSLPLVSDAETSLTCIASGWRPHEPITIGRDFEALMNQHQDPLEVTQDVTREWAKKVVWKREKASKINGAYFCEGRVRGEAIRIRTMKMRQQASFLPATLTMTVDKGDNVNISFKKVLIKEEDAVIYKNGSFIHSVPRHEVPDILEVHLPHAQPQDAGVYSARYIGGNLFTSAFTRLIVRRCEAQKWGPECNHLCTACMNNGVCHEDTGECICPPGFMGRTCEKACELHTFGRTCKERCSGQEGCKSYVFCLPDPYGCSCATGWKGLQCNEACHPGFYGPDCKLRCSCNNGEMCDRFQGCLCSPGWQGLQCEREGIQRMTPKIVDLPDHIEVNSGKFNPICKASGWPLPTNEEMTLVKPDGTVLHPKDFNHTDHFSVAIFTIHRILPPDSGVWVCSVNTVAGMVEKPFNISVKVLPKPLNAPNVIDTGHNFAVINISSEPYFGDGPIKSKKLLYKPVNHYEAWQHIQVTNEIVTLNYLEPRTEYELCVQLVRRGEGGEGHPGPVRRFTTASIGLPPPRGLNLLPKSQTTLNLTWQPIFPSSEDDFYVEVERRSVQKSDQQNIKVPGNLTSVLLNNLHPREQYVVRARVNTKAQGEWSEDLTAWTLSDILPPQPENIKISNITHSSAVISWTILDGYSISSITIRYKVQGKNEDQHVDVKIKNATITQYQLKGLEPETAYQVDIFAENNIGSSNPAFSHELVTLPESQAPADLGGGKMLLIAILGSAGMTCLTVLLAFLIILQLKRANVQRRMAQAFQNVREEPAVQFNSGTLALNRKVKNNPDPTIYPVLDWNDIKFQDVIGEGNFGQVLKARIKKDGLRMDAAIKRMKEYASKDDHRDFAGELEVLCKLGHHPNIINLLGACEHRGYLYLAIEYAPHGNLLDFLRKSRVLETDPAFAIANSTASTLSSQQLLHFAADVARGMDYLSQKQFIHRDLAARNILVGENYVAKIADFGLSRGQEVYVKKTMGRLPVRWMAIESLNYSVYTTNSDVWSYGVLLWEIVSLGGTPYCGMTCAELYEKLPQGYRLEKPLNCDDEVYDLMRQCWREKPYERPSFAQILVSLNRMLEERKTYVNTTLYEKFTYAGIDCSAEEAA

[26] = molecular target: High affinity nerve growth factor receptor (Homo sapiens) (UniProt P04629); assay: Inhibition of recombinant human N-terminal His6-tagged TRKA (440 to end residues) expressed in baculovirus infected Sf21 insect cells at 2 uM using KKKSPGEYVNIEFG as substrate relative to control
[27] = Unbound intrinsic clearance in human hepatocytes assessed per million cells; format: ADME, cell-based, Hepatocyte
[28] = Unbound intrinsic clearance in mouse hepatocytes assessed per million cells; format: ADME, cell-based, Hepatocyte

C[C@@H](c1ccc2ncccc2c1)c1nnc2sc(-c3cnn(C)c3)nn12
Ki [1]: > 4 µM
Ki [2]: > 4 µM
Ki [3]: > 4 µM
inhibition [4]: < 50%
inhibition [5]: < 50%
inhibition [6]: < 50%
inhibition [7]: < 50%
inhibition [8]: < 50%
inhibition [9]: < 50%
inhibition [10]: < 50%
inhibition [11]: < 50%
inhibition [12]: < 50%
inhibition [13]: < 50%
inhibition [14]: < 50%
inhibition [15]: < 50%
inhibition [16]: < 50%
inhibition [17]: < 50%
inhibition [18]: < 50%
inhibition [19]: < 50%
inhibition [20]: < 50%
inhibition [21]: < 50%
inhibition [22]: < 50%
inhibition [23]: < 50%
inhibition [24]: < 50%
inhibition [25]: < 50%
inhibition [26]: < 50%
CL free [27]: 5.1 µL/min
CL free [28]: 7.2 µL/min
